In US20250387385A1, “TREATMENT FOR GLOMERULAR DISEASES” (ZYDUS Lifesciences Limited, priority 2022, published 2025):

What was measured:
[1] = system: db/db mice; assay: Diabetes induced renal dysfunction in db/db mice; type: in vivo; conditions: one kidney removed, 15 mg/kg for eight weeks; for Urine microalbumin (reduction): reduction against diabetic mice
Method: For inducing diabetes-induced renal dysfunction, one kidney was removed from male db/db mice and they were treated with compound of formula (Ia) and combination for 8 weeks. At the end of treatment, renal dysfunction was estimated. Histological change in renal disease was also accessed with biochemical changes in serum and urine. Male db/db mice were randomized and were treated with compound of formula (Ia) (15 mg/kg) for eight weeks. At the end of treatment serum creatinine, serum urea and urine microalbumin was measured.

[2] = system: ischemia condition; conditions: reference 12, cited from earlier work
[3] = system: HIF; conditions: animal model of anemia; reference 10; cited from earlier work
[4] = system: doxorubicin treated mice; assay: Doxorubicin-induced glomerulosclerosis in male Balb/c mice; type: in vivo; conditions: reduction against doxorubicin treated animals, 24 h urine, oral, two weeks, formula (Ia) 15 mg/kg, Fimasartan 15 mg/kg
Method: Male Balb/c mice were treated with doxorubicin (10 mg/kg, IV). After 5 weeks of treatment, mice were randomized based on protein excretion urine into four groups: Doxorubicin, compound of formula (Ia) (15 mg/kg) and combination of compound of formula (Ia) (15 mg/kg) and Fimasartan (15 mg/kg) by oral route. The treatment continued for two weeks. These mice kept in metabolic cage and 24 h urine protein excretion was measured.

[5] = system: hemoglobin; conditions: clinical trials; reference 11; cited from earlier work
[6] = system: LPS treated mice; assay: LPS-induced nephritis in C57 mice; type: in vivo; conditions: serum 24 h after LPS, oral, formula (Ia) 15 mg/kg, Iptacopan 20 mg/kg twice a day; for Serum creatinine (reduction): reduction against LPS treated mice; for Serum urea (reduction): reduction compared with LPS treated mice
Method: Single dose of lipopolysachharide (LPS)-induced acute nephritis was generated in C57 mice and the effect of compound of formula (Ia) and combination as shown below. Male C57 mice were treated with vehicle/compound of formula (Ia) (15 mg/kg) and combination of compound of formula (Ia) (15 mg/kg) and Iptacopan (20 mg/kg, twice a day) by oral route. These mice were bled after 24 h of LPS treatment and serum was obtained. The creatinine and urea levels were measured in the serum.

[7] = system: BSA treated mice; assay: Cationic bovine serum albumin (cBSA) induced nephritis in male C57 mice; type: in vivo; conditions: reduction against BSA treated mice, 24 h urine on 11th day, oral, 10 days, formula (Ia) 15 mg/kg, Iptacopan 20 mg/kg BID
Method: Male C57 mice were treated with bovine serum albumin (BSA) at 2, 4, 6, 8 and 10 mg/kg on day 1, 2, 3, 4, and 5 days by intraperitoneal route, respectively. The BSA at 10 mg/kg was treated for next 5 days. On the same day, mice were treated with either vehicle/compound of formula (Ia) (15 mg/kg) and combination of compound of formula (Ia) (15 mg/kg) and Iptacopan (20 mg/kg, BID) by oral route and continued for 10 days. On 11th day mice kept in metabolic cage and 24 h urine protein excretion was measured.

[8] = system: 5/6 nephrectomized rat; assay: 5/6 nephrectomy induced renal dysfunction in male SD rats; type: in vivo; conditions: 5/6 nephrectomized SD rats, 15 mg/kg for four weeks
Method: Male SD rats will be operated for 5/6 nephrectomy to induce the focal segmental glomerulosclerosis. After a week of recovery, animals were treated with compound of formula (Ia). The randomized rats were treated with compound of formula (Ia) (15 mg/kg) for four weeks. At the end of treatment serum creatinine, serum urea and urine microalbumin was measured.

[9] = listed as Compound of formula (Ia)
[10] = listed as compound of formula (Ia)

Question: What does the source list for `O=C(O)CNC(=O)c1c(O)c2ccccc2n(OCC2CC2)c1=O` [Formula (Ia), Desidustat]?
Answer: Serum creatinine (reduction) [1]: 28.4 ± 4.4%; Serum urea (reduction) [1]: 25.8 ± 4.8%; Serum creatinine (reduction) [1, 9]: 28.4±4.4%; Serum urea (reduction) [1, 9]: 25.8±4.8%; Urine microalbumin (reduction) [1]: 50.2 ± 3.2%; Urine microalbumin (reduction) [1, 9]: 50.2±3.2%; IL-1β levels ([2]; ischemia condition): reduced; IL-6 levels ([2]; ischemia condition): reduced; MDA ([2]; oxidative stress): decreases; SOD ([2]; oxidative stress): decreases; HIF stabilisation [3]: stabilizes HIF; erythropoiesis [3]: induces erythropoiesis; Urine total protein (reduction) [4]: 47.8 ± 5.8%; Urine total protein (reduction) [4, 10]: 47.8±5.8%; hemoglobin [5]: improves hemoglobin; Serum creatinine (reduction) [6]: 34.1 ± 5.2%; Serum creatinine (reduction) [6, 10]: 34.1±5.2%; Serum urea (reduction) [6]: 44.9 ± 5.2%; Serum urea (reduction) [6, 10]: 44.9 ± 5.2%; Urine total protein (reduction) [7]: 40.1 ± 7.6%; Urine total protein (reduction) [7, 9]: 40.1±7.6%; Microalbumin (reduction of urinary excretion) [8]: 35.9 ± 12.0%; Serum creatinine (reduction) [8]: 14.9 ± 3.2%; Serum urea (reduction) [8]: 15.9 ± 8.8%; Microalbumin (reduction of urinary excretion) [8, 9]: 35.9±12.0%; Serum creatinine (reduction) [8, 9]: 14.9±3.2%; Serum urea (reduction) [8, 9]: 15.9±8.8%
